We go through 14 compounds from patent US20240409585A1, “MACROCYCLIC IMMUNOMODULATORS” (priority 2021, published 2024).

Bridge positions count the residues as written; N and C are the ends. Square brackets hold non-standard residues; d marks the D form. Peptide text beside a SMILES is read from it. * marks the point of attachment. ξ: configuration not given here. Phe(4-(4-pyridyl)) = N[C@@H](Cc1ccc(-c2ccncc2)cc1)C(=O)O; Phe(4-COOH) = N[C@@H](Cc1ccc(C(=O)O)cc1)C(=O)O; Ala(4-thiazolyl) = N[C@@H](Cc1cscn1)C(=O)O; Bip = N[C@@H](Cc1ccc(-c2ccccc2)cc1)C(=O)O; Phe(3-Me) = Cc1cccc(C[C@H](N)C(=O)O)c1; Val(3-OH) = CC(C)(O)[C@H](N)C(=O)O; aIle = CC[C@@H](C)[C@H](N)C(=O)O; 3Pal = N[C@@H](Cc1cccnc1)C(=O)O; 4Pal = N[C@@H](Cc1ccncc1)C(=O)O; Cha = N[C@@H](CC1CCCCC1)C(=O)O; Cit = NC(=O)NCCC[C@H](N)C(=O)O; Ile(3ξ) = CCC(C)[C@H](N)C(=O)O; Thr(3ξ) = CC(O)[C@H](N)C(=O)O; Carboxymethyl = O=C(O)C*; NMeA = CN[C@@H](C)C(=O)O; Orn = NCCC[C@H](N)C(=O)O; Dab = NCC[C@H](N)C(=O)O; ξV = CC(C)C(N)C(=O)O

The target of this assay is T1, PE-labeled human PD-L1-Ig binding to Jurkat cell line over-expressing human PD-1 (Jurkat-PD-1) (Homo sapiens, UniProt Q15116).
T1 construct: expressed in transfected cells; host or cells: Jurkat
T1 sequence (Q15116 25-288): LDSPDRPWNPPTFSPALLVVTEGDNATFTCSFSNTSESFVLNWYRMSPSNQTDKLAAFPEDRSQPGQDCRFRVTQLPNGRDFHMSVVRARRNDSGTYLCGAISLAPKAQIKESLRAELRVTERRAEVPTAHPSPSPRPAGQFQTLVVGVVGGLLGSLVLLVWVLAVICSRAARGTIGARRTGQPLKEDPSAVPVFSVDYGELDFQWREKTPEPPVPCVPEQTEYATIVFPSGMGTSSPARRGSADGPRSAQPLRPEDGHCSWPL
The assay can be described thus: Jurkat-PD-1 Cell Binding High-Content Screening Assay (CBA): Method 1. To be noted: Jurkat-hPD-1 cells, PE-labeled PD-L1-Ig 20 nM final; read-out: Jurkat HPDL1 PD1 IC50 (uM) (Method 1).
Usually IC50 stands for the concentration that gives 50% inhibition. Turning to `CC(C)C[C@@H]1NC(=O)[C@H](CCCNC(=N)N)NC(=O)[C@@H](CC(C)C)NC(=O)[C@H](C)N(C)C(=O)[C@H](CCCNC(=N)N)NC(=O)[C@H](Cc2ccc(-c3ccncc3)cc2)NC(=O)[C@H](C(C)C)NC(=O)[C@H](Cc2c[nH]c3ccccc23)NC(=O)[C@H](CC(=O)O)NC(=O)[C@H](Cc2ccc(O)cc2)NC(=O)[C@H](Cc2ccccc2)NC(=O)CSC[C@@H](C(=O)N[C@@H](C)C(N)=O)NC(=O)[C@H]([C@@H](C)O)NC(=O)[C@H](C(C)C)NC1=O` [Compound 1078] ({CH2CO}-FYDWV[Phe(4-(4-pyridyl))]R[NMeA][dL]RLVTCA-NH2; thioether N-14), the IC50 was found to be 0.48 µM.

As to `Cc1cccc(C[C@@H]2NC(=O)[C@H](CC(N)=O)NC(=O)CSC[C@@H](C(=O)N[C@@H](C)C(N)=O)NC(=O)[C@H]([C@@H](C)O)NC(=O)[C@H](C(C)C)NC(=O)[C@H](CC(C)C)NC(=O)[C@H](CCN)NC(=O)[C@@H](CC(C)C)NC(=O)[C@H](C)N(C)C(=O)[C@H](CCCNC(N)=O)NC(=O)[C@H](Cc3ccc(-c4ccccc4)cc3)NC(=O)[C@H](C(C)C)NC(=O)[C@H](Cc3c[nH]c4ccccc34)NC(=O)[C@H](CC(=O)O)NC2=O)c1` [Compound 1311] ({CH2CO}-N[Phe(3-Me)]DWV[Bip][Cit][NMeA][dL][Dab]LVTCA-NH2; thioether N-14), the IC50 was 0.05 µM.

For `Cc1cccc(C[C@@H]2NC(=O)[C@H](CC(N)=O)NC(=O)CSC[C@@H](C(=O)N[C@@H](C)C(N)=O)NC(=O)[C@H]([C@@H](C)O)NC(=O)[C@H](C(C)C)NC(=O)[C@H](CC(C)C)NC(=O)[C@H](CCN)NC(=O)[C@@H](CC(C)C)NC(=O)[C@H](C)N(C)C(=O)[C@H](CCCNC(=N)N)NC(=O)[C@H](Cc3ccc(-c4ccccc4)cc3)NC(=O)[C@H](C(C)C)NC(=O)[C@H](Cc3c[nH]c4ccccc34)NC(=O)[C@H](CC(=O)O)NC2=O)c1` [Compound 1305] ({CH2CO}-N[Phe(3-Me)]DWV[Bip]R[NMeA][dL][Dab]LVTCA-NH2; thioether N-14), the IC50 was determined as 0.2 µM.

Regarding `CCC(C)[C@@H]1NC(=O)[C@H](Cc2ccc(-c3ccccc3)cc2)NC(=O)[C@H](C(C)C)NC(=O)[C@H](Cc2c[nH]c3ccccc23)NC(=O)[C@H](CC(=O)O)NC(=O)[C@H](Cc2ccc(O)cc2)NC(=O)[C@H](CC(N)=O)NC(=O)CSC[C@@H](C(=O)N[C@@H](CC(=O)O)C(=O)N[C@@H](CCN)C(=O)O)NC(=O)[C@H](C(C)O)NC(=O)[C@H](C(C)C)NC(=O)[C@H](CC2CCCCC2)NC(=O)[C@H](CC(N)=O)NC(=O)[C@@H](CC(C)C)NC(=O)[C@H](C)N(C)C1=O` (stereo partly drawn) [Compound 2002] ({CH2CO}-NYDWV[Bip][Ile(3ξ)][NMeA][dL]N[Cha]V[Thr(3ξ)]CD[Dab]-OH; thioether N-14), the IC50 came out at 0.14 µM.

In the case of `CCC(C)[C@@H]1NC(=O)[C@H](Cc2ccc(-c3ccccc3)cc2)NC(=O)[C@H](C(C)C)NC(=O)[C@H](Cc2cccc(C)c2)NC(=O)[C@H](CC(=O)O)NC(=O)[C@H](Cc2ccc(OCC(=O)O)cc2)NC(=O)[C@H](C(C)O)NC(=O)CSC[C@@H](C(=O)N[C@@H](CCCN)C(N)=O)NC(=O)[C@H](C(C)O)NC(=O)[C@H](C(C)(C)O)NC(=O)[C@H](CC2CCCCC2)NC(=O)[C@H](CCN)NC(=O)[C@@H](CC(C)C)NC(=O)[C@H](C)N(C)C1=O` (stereo partly drawn) [Compound 2147] ({CH2CO}-[Thr(3ξ)]Y(Carboxymethyl)D[Phe(3-Me)]V[Bip][Ile(3ξ)][NMeA][dL][Dab][Cha][Val(3-OH)][Thr(3ξ)]C[Orn]-NH2; thioether N-14), the IC50 was determined as 0.01 µM.

As for `COc1ccc(C[C@H]2NC(=O)[C@H](C)N(C)C(=O)[C@H](CCCNC(=N)N)NC(=O)[C@H](Cc3ccc(-c4ccccc4)cc3)NC(=O)[C@H](C(C)C)NC(=O)[C@H](Cc3c[nH]c4ccccc34)NC(=O)[C@H](CC(=O)O)NC(=O)[C@H](Cc3ccc(O)cc3)NC(=O)[C@H](Cc3ccccc3)NC(=O)CSC[C@@H](C(=O)N[C@@H](C)C(N)=O)NC(=O)[C@H]([C@@H](C)O)NC(=O)[C@H](C(C)C)NC(=O)[C@H](CC(C)C)NC(=O)[C@H](CCCNC(=N)N)NC2=O)cc1` [Compound 1108] ({CH2CO}-FYDWV[Bip]R[NMeA][dY](Me)RLVTCA-NH2; thioether N-14), the IC50 is 0.53 µM.

Consider `CC(C)C[C@@H]1NC(=O)[C@H](Cc2c[nH]c3ccccc23)NC(=O)[C@H](CC(=O)O)NC(=O)[C@H](Cc2ccc(O)cc2)NC(=O)[C@H](Cc2ccccc2)NC(=O)CSC[C@@H](C(=O)NCC(N)=O)NC(=O)[C@H](CO)NC(=O)[C@H](C(C)C)NC(=O)[C@H](CC(C)C)NC(=O)[C@H](CCN)NC(=O)[C@@H](C)NC(=O)[C@H](C)N(C)C(=O)[C@H](C(C)C)NC(=O)[C@H](Cc2ccc(-c3ccccc3)cc2)NC1=O` [Compound 1479] ({CH2CO}-FYDWL[Bip]V[NMeA][dA][Dab]LVSCG-NH2; thioether N-14), for which the IC50 amounted to 0.02 µM.

With `CC(C)C[C@@H]1NC(=O)[C@H](Cc2c[nH]c3ccccc23)NC(=O)[C@H](CC(=O)O)NC(=O)[C@H](Cc2ccc(C(=O)O)cc2)NC(=O)[C@H](Cc2cccnc2)NC(=O)CSC[C@@H](C(=O)N[C@@H](C)C(N)=O)NC(=O)[C@H](CO)NC(=O)[C@H](C(C)C)NC(=O)[C@H](CC(C)C)NC(=O)[C@H](CCCCN)NC(=O)[C@@H](C)NC(=O)[C@H](C)N(C)C(=O)[C@H](CCC(=O)O)NC(=O)[C@H](Cc2ccc(-c3ccccc3)cc2)NC1=O` [Compound 1761] ({CH2CO}-[3Pal][Phe(4-COOH)]DWL[Bip]E[NMeA][dA]KLVSCA-NH2; thioether N-14), the IC50 turned out to be 0.03 µM.

Regarding `CC[C@@H](C)[C@@H]1NC(=O)[C@H](Cc2ccc(-c3ccccc3)cc2)NC(=O)[C@H](CC(C)C)NC(=O)[C@H](Cc2c[nH]c3ccccc23)NC(=O)[C@H](CC(=O)O)NC(=O)[C@H](Cc2ccc(C(=O)O)cc2)NC(=O)[C@H](Cc2ccc(OCC(=O)O)cc2)NC(=O)CSC[C@@H](C(=O)N[C@@H](CCCCN)C(N)=O)NC(=O)[C@H](Cc2cscn2)NC(=O)C(C(C)C)NC(=O)[C@H](CC(C)C)NC(=O)[C@H](CC(N)=O)NC(=O)[C@@H](CC(C)C)NC(=O)[C@H](C)N(C)C1=O` (stereo partly drawn) [Compound 2107] ({CH2CO}-Y(Carboxymethyl)[Phe(4-COOH)]DWL[Bip][aIle][NMeA][dL]NL[ξV][Ala(4-thiazolyl)]CK-NH2; thioether N-14), the half-maximal inhibitory concentration (IC50) was 0.24 µM.

`CC(=O)NCCCC[C@@H]1NC(=O)[C@H](Cc2ccc(-c3ccccc3)cc2)NC(=O)[C@H](Cc2ccc(O)cc2)NC(=O)[C@H](Cc2cccc(C)c2)NC(=O)[C@H](CC(=O)O)NC(=O)[C@H](Cc2ccc(OCC(=O)O)cc2)NC(=O)[C@H](C(C)O)NC(=O)CSC[C@@H](C(=O)N[C@H](CC(N)=O)C(N)=O)NC(=O)[C@H](C(C)O)NC(=O)[C@H](C(C)C)NC(=O)[C@H](CC2CCCCC2)NC(=O)[C@H](CCN)NC(=O)[C@@H](CC(C)C)NC(=O)[C@H](C)N(C)C1=O` (stereo partly drawn) [Compound 2118] ({CH2CO}-[Thr(3ξ)]Y(Carboxymethyl)D[Phe(3-Me)]Y[Bip]K(Ac)[NMeA][dL][Dab][Cha]V[Thr(3ξ)]C[dN]-NH2; thioether N-14): the IC50 worked out at 0.05 µM.

For `CC(C)C[C@@H]1NC(=O)[C@H](CCN)NC(=O)[C@@H](CC(C)C)NC(=O)[C@H](C)N(C)C(=O)[C@H](CCCNC(=N)N)NC(=O)[C@H](Cc2ccc(-c3ccccc3)cc2)NC(=O)[C@H](C(C)C)NC(=O)[C@H](Cc2c[nH]c3ccccc23)NC(=O)[C@H](CC(=O)O)NC(=O)[C@H](Cc2ccc(O)cc2)NC(=O)[C@H](CC(N)=O)NC(=O)CSC[C@@H](C(=O)N[C@@H](C)C(N)=O)NC(=O)[C@H](CCCN)NC(=O)[C@H](C(C)C)NC1=O` [Compound 1242] ({CH2CO}-NYDWV[Bip]R[NMeA][dL][Dab]LV[Orn]CA-NH2; thioether N-14), the IC50 turned out to be 0.09 µM.

For the compound `Cc1cccc(C[C@@H]2NC(=O)[C@H](CC(=O)O)NC(=O)[C@H](Cc3ccc(OCC(=O)O)cc3)NC(=O)[C@H](Cc3ccncc3)NC(=O)CSC[C@@H](C(=O)N[C@@H](CCN)C(N)=O)NC(=O)[C@H](CCC(=O)O)NC(=O)[C@H](C(C)(C)O)NC(=O)[C@H](CC3CCCCC3)NC(=O)[C@H](CCN)NC(=O)[C@@H](CC(C)C)NC(=O)[C@H](C)N(C)C(=O)[C@H](Cc3ccc(OCC(=O)O)cc3)NC(=O)[C@H](Cc3ccc(-c4ccccc4)cc3)NC(=O)[C@H](Cc3ccc(OCC(=O)O)cc3)NC2=O)c1` [Compound 2188] ({CH2CO}-[4Pal]Y(Carboxymethyl)D[Phe(3-Me)]Y(Carboxymethyl)[Bip]Y(Carboxymethyl)[NMeA][dL][Dab][Cha][Val(3-OH)]EC[Dab]-NH2; thioether N-14), the IC50 was 0.02 µM.

As for `Cc1cccc(C[C@@H]2NC(=O)[C@H](CC(=O)O)NC(=O)[C@H](Cc3ccc(C(=O)O)cc3)NC(=O)[C@H](Cc3ccc(OCC(=O)O)cc3)NC(=O)CSC[C@@H](C(=O)N[C@@H](C)C(N)=O)NC(=O)[C@H]([C@@H](C)O)NC(=O)[C@H](C(C)C)NC(=O)[C@H](CC(C)C)NC(=O)[C@H](CCN)NC(=O)[C@@H](CC(C)C)NC(=O)[C@H](C)N(C)C(=O)[C@H](C(C)C)NC(=O)[C@H](Cc3ccc(-c4ccccc4)cc3)NC(=O)[C@H](C(C)C)NC2=O)c1` [Compound 1571] ({CH2CO}-Y(Carboxymethyl)[Phe(4-COOH)]D[Phe(3-Me)]V[Bip]V[NMeA][dL][Dab]LVTCA-NH2; thioether N-14), the IC50 was determined as 0.01 µM.

Turning to `CC(C)C[C@@H]1NC(=O)[C@H](CCN)NC(=O)[C@@H](CC(C)C)NC(=O)[C@H](C)N(C)C(=O)[C@H](CC(C)C)NC(=O)[C@H](Cc2ccc(-c3ccccc3)cc2)NC(=O)[C@H](C(C)C)NC(=O)[C@H](Cc2c[nH]c3ccccc23)NC(=O)[C@H](CC(=O)O)NC(=O)[C@H](Cc2ccc(O)cc2)NC(=O)[C@H](CC(N)=O)NC(=O)CSC[C@@H](C(=O)N[C@@H](C)C(N)=O)NC(=O)[C@H]([C@@H](C)O)NC(=O)[C@H](C(C)C)NC1=O` [Compound 1270] ({CH2CO}-NYDWV[Bip]L[NMeA][dL][Dab]LVTCA-NH2; thioether N-14), the IC50 is 0.11 µM.
